Test results from ChEMBL document CHEMBL4651402, “Screening of ~5500 FDA-approved drugs and clinical candidates for anti-SARS-CoV-2 activity” (2021).

Test system: SARS-CoV-2
Experiment: microbe, parasite or virus in culture
Conditions: Severe acute respiratory syndrome coronavirus 2, Vero C1008, 48 h

SMILES	IC50	IC50 (read-out: pIC50 (converted))
COc1c(N2CCC/C(=C(\F)CN)C2)c(F)cc2c(=O)c(C(=O)O)cn(C3CC3)c12 [ACORAFLOXACIN]	> 20 µM	> 20 µM
CC(=O)NCC1(c2ccccc2)CCN(CC2COc3ccccc3O2)CC1 (stereo not drawn) [ACOXATRINE]	> 20 µM	> 20 µM
CC(=O)OCC(=O)Nc1cc(C#N)cc(NC(=O)COC(C)=O)c1Cl [ACREOZAST]	> 20 µM	> 20 µM
Cc1ccc(/C(=C\CN2CCCC2)c2cccc(/C=C/C(=O)O)n2)cc1 [ACRIVASTINE]	> 20 µM	> 20 µM
CC(=O)Nc1ccc(CC(=O)O)cc1 [ACTARIT]	> 20 µM	> 20 µM
Nc1nc2c(ncn2COCCO)c(=O)[nH]1 [ACYCLOVIR]	> 20 µM	> 20 µM
CC(C)OC(=O)[C@H](C)N[P@](=O)(OC[C@@]1(F)O[C@@H](n2ccc(=O)[nH]c2=O)[C@](C)(O)[C@@H]1O)Oc1ccccc1 [ADAFOSBUVIR]	> 20 µM	> 20 µM
O=C(NCCN1CCN(c2ncccn2)CC1)C12CC3CC(CC(C3)C1)C2 [ADATANSERIN]	> 20 µM	> 20 µM
C=CCn1c(=O)c2cnc(Nc3ccc(N4CCN(C)CC4)cc3)nc2n1-c1cccc(C(C)(C)O)n1 [ADAVOSERTIB]	> 20 µM	> 20 µM
Nc1[nH]cnc2ncnc1-2 [ADENINE]	> 20 µM	> 20 µM
Nc1ncnc2c1ncn2[C@@H]1O[C@H](COP(=O)(O)O)[C@@H](O)[C@H]1O [ADENOSINE PHOSPHATE]	> 20 µM	> 20 µM
Nc1ncnc2c1ncn2[C@@H]1O[C@H](COP(=O)(O)OP(=O)(O)OP(=O)(O)O)[C@@H](O)[C@H]1O [ADENOSINE TRIPHOSPHATE]	> 20 µM	> 20 µM
Nc1ncnc2c1ncn2[C@@H]1O[C@H](CO)[C@@H](O)[C@H]1O [ADENOSINE]	> 20 µM	> 20 µM
CC1(C)C(=O)Nc2cc3[nH]c(-c4ccncc4)nc3cc21 [ADIBENDAN]	> 20 µM	> 20 µM
CCN(CC)CCOC(=O)C(c1ccccc1)c1ccccc1 [ADIPHENINE]	> 20 µM	> 20 µM
CNCC(=O)c1ccc(O)c(O)c1 [ADRENALONE]	> 20 µM	> 20 µM
C[C@]12CCC(=O)C=C1CC[C@@H]1[C@@H]2C(=O)C[C@]2(C)C(=O)CC[C@@H]12 [ADRENOTERONE]	> 20 µM	> 20 µM
CCN1CCN(Cc2ccc(-c3cc4c(N[C@H](C)c5ccccc5)ncnc4[nH]3)cc2)CC1 [AEE-788]	> 20 µM	> 20 µM
CC(=O)NC(Cc1ccccc1)C(=O)O (stereo not drawn) [AFALANINE]	> 20 µM	> 20 µM
CN(C)C/C=C/C(=O)Nc1cc2c(Nc3ccc(F)c(Cl)c3)ncnc2cc1O[C@H]1CCOC1 [AFATINIB]	> 20 µM	> 20 µM
CC/C(=C(\c1ccc(O)cc1)c1ccc(OCCN(C)C)cc1)c1ccccc1 [AFIMOXIFENE]	> 20 µM	> 20 µM
Cc1c(CN(C)C(=O)/C=C/c2cnc3c(c2)CCC(=O)N3)oc2ccccc12 [AFN-1252]	> 20 µM	> 20 µM
CC(C)(C)NCC(O)COc1cccc2c1C(=O)OC2 (stereo not drawn) [AFUROLOL]	> 20 µM	> 20 µM
COc1ccc2cccc(CCNC(C)=O)c2c1 [AGOMELATINE]	> 20 µM	> 20 µM
NC(=O)c1ccc([N+](=O)[O-])cc1Cl [AKLOMIDE]	> 20 µM	> 20 µM

SMILES	IC50	IC50 (read-out: pIC50 (converted))
Nc1ncc(-c2ccncc2)nc1Nc1ccc2[nH]ccc2c1 [AKN-028]	> 20 µM	> 20 µM
CC(N)C(=O)OC(C)(C)Cc1ccc(Cl)cc1 (stereo not drawn) [ALAPROCLATE]	> 20 µM	> 20 µM
CCCSc1ccc2[nH]c(NC(=O)OC)nc2c1 [ALBENDAZOLE]	> 20 µM	> 20 µM
CC(C)(C)NCC(O)c1ccc(O)c(CO)c1 (stereo not drawn) [ALBUTEROL]	> 20 µM	> 20 µM
CN1CCC(=C2c3ccccc3CCn3c(C=O)cnc32)CC1 [ALCAFTADINE]	> 20 µM	> 20 µM
C=CCOc1ccc(CC(=O)O)cc1Cl [ALCLOFENAC]	> 20 µM	> 20 µM
CCC(=O)OCC(=O)[C@@]1(OC(=O)CC)[C@H](C)C[C@H]2[C@H]3[C@H]([C@@H](O)C[C@@]21C)[C@@]1(C)C=CC(=O)C=C1C[C@H]3Cl [ALCLOMETASONE DIPROPIONATE]	> 20 µM	> 20 µM
CCc1cc2c(cc1N1CCC(N3CCOCC3)CC1)C(C)(C)c1[nH]c3cc(C#N)ccc3c1C2=O [ALECTINIB]	> 20 µM	> 20 µM
NCCCC(O)(P(=O)(O)O)P(=O)(O)O [ALENDRONIC ACID]	> 20 µM	> 20 µM
C=CCC(N)Cc1ccccc1 (stereo not drawn) [ALETAMINE]	> 20 µM	> 20 µM
CCCCC(CC)CNC(=N)NC(=N)NCCCCCCNC(=N)NC(=N)NCC(CC)CCCC (stereo not drawn) [ALEXIDINE]	> 20 µM	> 20 µM
OC[C@H]1O[C@@H]2O[C@H]3[C@H](O)[C@@H](O)[C@@H](O[C@H]4[C@H](O)[C@@H](O)[C@@H](O[C@H]5[C@H](O)[C@@H](O)[C@@H](O[C@H]6[C@H](O)[C@@H](O)[C@@H](O[C@H]7[C@H](O)[C@@H](O)[C@@H](O[C@H]1[C@H](O)[C@H]2O)O[C@@H]7CO)O[C@@H]6CO)O[C@@H]5CO)O[C@@H]4CO)O[C@@H]3CO [ALFADEX]	> 20 µM	> 20 µM
CC(=O)[C@H]1CC[C@H]2[C@@H]3CC[C@H]4C[C@H](O)CC[C@]4(C)[C@H]3C(=O)C[C@]12C [ALFAXALONE]	> 20 µM	> 20 µM
COc1cc2nc(N(C)CCCNC(=O)C3CCCO3)nc(N)c2cc1OC (stereo not drawn) [ALFUZOSIN]	> 20 µM	> 20 µM
COc1cc(Nc2ncc3c(n2)-c2ccc(Cl)cc2C(c2c(F)cccc2OC)=NC3)ccc1C(=O)O [ALISERTIB]	> 20 µM	> 20 µM
C/C=C/C[C@@H](C)[C@@H](O)[C@H]1C(=O)N[C@@H](CC)C(=O)N(C)[C@H](C)C(=O)N(CC)[C@@H](C(C)C)C(=O)N[C@@H](C(C)C)C(=O)N(C)[C@@H](CC(C)C)C(=O)N[C@@H](C)C(=O)N[C@H](C)C(=O)N(C)[C@@H](CC(C)C)C(=O)N(C)[C@@H](CC(C)C)C(=O)N(C)[C@@H](C(C)C)C(=O)N1C [ALISPORIVIR]	> 20 µM	> 20 µM
C=CCN1CCCC1CNC(=O)c1cc2nn[nH]c2cc1OC (stereo not drawn) [ALIZAPRIDE]	> 20 µM	> 20 µM
NC(=O)NC1NC(=O)NC1=O (stereo not drawn) [ALLANTOIN]	> 20 µM	> 20 µM
C=CC(=O)Nc1ccc2ncnc(Nc3ccc(OCc4cccc(F)c4)c(Cl)c3)c2c1 [ALLITINIB]	> 20 µM	> 20 µM
C=CCC1(CC=C)C(=O)NC(=O)NC1=O [ALLOBARBITAL]	> 20 µM	> 20 µM
Oc1ncnc2[nH]ncc12 [ALLOPURINOL]	> 20 µM	> 20 µM
O=C1NC(=O)C(=O)C(=O)N1 [ALLOXAN]	> 20 µM	> 20 µM
O=c1[nH]c(=O)c2nc3ccccc3nc2[nH]1 [ALLOXAZINE]	> 20 µM	> 20 µM
C=CC[C@]1(O)CC[C@H]2[C@@H]3CCC4=CCCC[C@@H]4[C@H]3CC[C@@]21C [ALLYLESTRENOL]	> 20 µM	> 20 µM
